System: HL-60
Assay: Concentration required for induction of HL-60 cell differentiation (ATCC cells) to 50% was determined
Format: functional, Homo sapiens

C=C1C[C@H](O)[C@H](O)C/C1=C/C=C1\CCCC2(C)C1CCC2[C@H](C)CCCC(C)(C)O (stereo partly specified) showed an EC50 of 600 nM.

— ChEMBL document CHEMBL1127010, “Synthesis of 3-acetoxy-12-epoxy-25-hydroxy-cholesta-5,7-diene and 2-25-dihydroxyvitamin D3” (1993)
